# Reference: US11873295B2, “Allosteric chromenone inhibitors of phosphoinositide 3-kinase (PI3K) for the treatment of disease” (Petra Pharma Corporation, priority 2021, dated 2024)
# pIC50: −log10 of the molar value.
# Assays:
# [1] = target: T1, human full length PIK3KA Wild-type (p110α/p85α complex) (Homo sapiens, UniProt P42336); assay: PI3K-alpha kinase (PIK3CA) biochemical activity, wild-type, ADP-Glo; conditions: PI3K-α (PIK3CA) biochemical
# T1 construct: Recombinant, catalytically active human full length PIK3KA Wild-type and H1047R mutant were purchased as 1:1 complex; 6xHis (N); purchased EMD Millipore Sigma 14-602M
# Description: (§1) PI3K-Alpha Kinase (PIK3CA) Activity, Wild-Type and H1047R Mutant and Determining IC50 Values for Inhibitors
# (§2) Recombinant, catalytically active human full length PIK3KA Wild-type and H1047R mutant were purchased as 1:1 complex of N-terminal 6× his tagged p110α (catalytic) and untagged p85α (regulatory subunit) from EMD Millipore Sigma (cat. no. 14-602M and 14-792M, respectively). PIP2diC8 (Avanti Polar Lipids Inc., cat. no. 850185) or Soy PI (Avanti Polar Lipids Inc., cat. No. 840044P) was used as lipid substrate. PIP2diC8 or PI lyophilized powder was dissolved in milliQ water to a concentration of 1 mM just before use. 10 mM stock compounds in DMSO were serially diluted 1:3 to generate a 10-point curve and plated using an acoustic liquid handler system (Echo 550 series instrument, Labcyte). A 10× intermediate compound plate (200 uM starting compound concentration and 10% DMSO) was prepared before starting the reaction. A typical reaction mixture (50 uL) comprised 40 mM HEPES buffer, pH 7.4, 25 mM MgCl2, 0.01% v/v triton-X-100, 1% v/v DMSO, 20 mM NaCl, 1-5 nM WT or H1047R PI3K protein, 20 uM ATP, and 50 uM PIP2diC8 or Soy PI. 1% DMSO buffer alone without test compound was employed as MAX control (full activity in the absence of any inhibitor), and no enzyme control was used to determine the level of background Adenosine 5′-diphosphate (ADP) (MIN control). First, Wild-type (WT) and H1047R mutant protein in kinase buffer with all components except ATP were incubated with or without compound at 27° C. for 1 h. After the pre-incubation, the reaction was initiated by the addition of 20 uL of 50 uM ATP (20 uM final concentration). The reaction was allowed to proceed until about 10% conversion of ATP (2 uM ADP) at 27° C. After that time, 5 uL of reaction was mixed with 5 uL of ADP-Kinase Glo Reagent (ADP-Glo Kinase assay kit, Promega cat. no. V9102) supplemented with MgCl2 10 mM to stop the reaction and deplete the remaining ATP for 40 min at room temperature. Then, 10 uL of Kinase Detection Reagent (ADP-Glo Kinase assay kit, Promega cat. no. V9102) was added to simultaneously convert ADP to ATP and allow the newly synthesized ATP to be measured using a luciferase/luciferin reaction. After 30 min at room temperature the light generated was measured using a luminometer (EnVision plate reader, Perkin Elmer). Process data through Genedata-Screener tool. Relative IC50 values are determined using luminescence units by calculating percent inhibition with respect to on-plate “MIN” and “MAX” controls. Data was analyzed using a 4-parameter nonlinear logistic equation (four-parameter logistic concentration-response curve): Y=bot+[(top−bot)/1+(x/IC50)slope] where Y=% inhibition, X=concentration yielding y % inhibition, Bottom=minimum value of y attained by curve, Top=maximum value of y attained by curve and Slope=steepness of curve at IC50. % Inh=[(median Max−x/median Max−median Min)]·100 IC50: concentration of compound that reduces a given response (ligand binding, enzyme response) by 50%. IC50 relative: concentration giving half the compound's maximum response.
# (§3) For IC50 values shown in Table A, “A” means IC50<0.5 μM; “B” means IC50 ranging between 0.5 μM and 1.0 μM; “C” means IC50 ranging between 1 μM and 5 μM; “D” means IC50 ranging between 5 μM and 10 μM; “E” means IC50>10 μM.
# [2] = target: T2, human full length PIK3KA H1047R mutant (p110α/p85α complex) (Homo sapiens, UniProt P42336, H1047R); assay: PI3K-alpha kinase (PIK3CA) biochemical activity, H1047R mutant, ADP-Glo; conditions: for pIC50: PI3K-α (PIK3CA) biochemical, H1047R mutant
# T2 construct: Recombinant, catalytically active human full length PIK3KA Wild-type and H1047R mutant were purchased as 1:1 complex; 6xHis (N); purchased EMD Millipore Sigma 14-792M
# Description: as §1, §2, §3
# [3] = PIP2diC8 lipid substrate (footnote 1)
# T2 sequence (P42336 whole entry H1047R): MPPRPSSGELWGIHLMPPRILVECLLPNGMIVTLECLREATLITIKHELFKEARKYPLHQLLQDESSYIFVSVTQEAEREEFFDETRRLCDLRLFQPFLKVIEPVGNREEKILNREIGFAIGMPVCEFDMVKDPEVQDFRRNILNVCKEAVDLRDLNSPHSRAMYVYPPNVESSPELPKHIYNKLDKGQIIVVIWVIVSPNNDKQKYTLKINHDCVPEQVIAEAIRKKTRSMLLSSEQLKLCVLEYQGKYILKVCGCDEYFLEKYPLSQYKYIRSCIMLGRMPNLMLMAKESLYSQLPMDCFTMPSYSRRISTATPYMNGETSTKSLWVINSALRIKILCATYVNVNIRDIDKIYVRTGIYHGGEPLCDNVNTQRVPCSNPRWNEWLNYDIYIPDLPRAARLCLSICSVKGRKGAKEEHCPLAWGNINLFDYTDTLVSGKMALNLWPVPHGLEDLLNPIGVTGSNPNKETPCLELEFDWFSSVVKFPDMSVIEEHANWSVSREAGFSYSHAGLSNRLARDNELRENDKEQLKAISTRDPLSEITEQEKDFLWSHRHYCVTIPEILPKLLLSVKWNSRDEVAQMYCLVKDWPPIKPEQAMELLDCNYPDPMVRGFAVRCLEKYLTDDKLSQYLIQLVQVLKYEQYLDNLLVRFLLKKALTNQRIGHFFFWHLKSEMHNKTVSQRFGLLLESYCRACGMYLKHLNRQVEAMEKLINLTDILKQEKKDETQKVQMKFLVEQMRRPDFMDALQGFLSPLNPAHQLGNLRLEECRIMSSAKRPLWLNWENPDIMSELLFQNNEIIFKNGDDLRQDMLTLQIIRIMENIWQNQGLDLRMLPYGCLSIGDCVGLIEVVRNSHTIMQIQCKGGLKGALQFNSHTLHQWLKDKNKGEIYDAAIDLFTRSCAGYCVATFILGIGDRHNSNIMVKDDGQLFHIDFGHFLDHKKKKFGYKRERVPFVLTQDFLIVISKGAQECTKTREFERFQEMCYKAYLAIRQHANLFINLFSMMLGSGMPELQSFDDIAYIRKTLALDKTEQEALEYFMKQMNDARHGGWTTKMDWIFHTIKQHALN
# T2 sequence (P27986 whole entry partner): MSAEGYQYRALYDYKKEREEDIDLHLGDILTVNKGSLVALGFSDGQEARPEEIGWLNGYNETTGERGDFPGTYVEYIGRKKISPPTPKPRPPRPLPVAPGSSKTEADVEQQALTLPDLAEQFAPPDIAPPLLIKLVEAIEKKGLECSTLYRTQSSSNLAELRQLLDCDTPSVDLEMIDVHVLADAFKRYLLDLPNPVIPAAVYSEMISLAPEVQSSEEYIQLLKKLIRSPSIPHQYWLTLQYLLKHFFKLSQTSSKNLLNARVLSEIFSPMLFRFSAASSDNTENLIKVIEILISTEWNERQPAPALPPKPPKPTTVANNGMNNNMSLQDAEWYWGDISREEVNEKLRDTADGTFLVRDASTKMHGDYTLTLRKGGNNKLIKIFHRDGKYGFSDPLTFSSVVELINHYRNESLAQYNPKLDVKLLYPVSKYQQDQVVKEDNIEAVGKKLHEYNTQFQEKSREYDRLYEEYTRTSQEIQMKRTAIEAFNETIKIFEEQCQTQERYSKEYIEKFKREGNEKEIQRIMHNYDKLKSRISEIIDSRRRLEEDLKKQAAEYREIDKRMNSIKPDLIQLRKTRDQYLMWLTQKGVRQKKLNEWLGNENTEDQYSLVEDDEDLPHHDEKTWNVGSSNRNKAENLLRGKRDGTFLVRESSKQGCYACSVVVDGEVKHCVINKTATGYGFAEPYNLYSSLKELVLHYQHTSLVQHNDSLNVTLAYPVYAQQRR
SMILES,pIC50 ([1]; Soy PI lipid substrate),pIC50 ([2]; Soy PI lipid substrate),"IC50 WT/IC50 H1047R ([2]; ratio of biochemical IC50 wild-type to H1047R mutant, Soy PI lipid substrate)","pIC50 [1, 3]","pIC50 [2, 3]"
"Cc1cc([C@@H](C)Nc2ccccc2C(=O)O)c2oc(-c3ccccc3F)cc(=O)c2c1 [Example 11, 2-[[(1R)-1-[2-(2-Fluorophenyl)-6-methyl-4-oxo-chromen-8-yl]ethyl]amino]benzoic acid]",5.30 to 6.00,> 6.30,,,
"Cc1cc(C(C)Nc2ccccc2C(=O)O)c2oc(-c3ccc(C4(C)CC4)cc3)cc(=O)c2c1 (stereo not drawn) [Example 12, 2-[1-[6-Methyl-2-[4-(1-methylcyclopropyl)-phenyl]-4-oxo-chromen-8-yl]ethylamino]benzoic acid 2,2,2-trifluoroacetic acid]",5.00 to 5.30,6.00 to 6.30,,,
"Cc1cc(C(C)Nc2ccccc2C(=O)O)c2oc(-c3cccc(-c4cnn(C)c4)c3)cc(=O)c2c1.O=C(O)C(F)(F)F (stereo not drawn) [Example 13, 2-[1-[6-Methyl-2-[3-(1-methylpyrazol-4-yl)phenyl]-4-oxo-chromen-8-yl]ethylamino]benzoic acid 2,2,2-trifluoroacetic acid]",5.30 to 6.00,> 6.30,"*For Example 13, IC50 WT/IC50 H1047R = 7.7",,
"Cc1cc([C@@H](C)Nc2ccccc2C(=O)O)c2oc(-c3cccc(C#N)c3)cc(=O)c2c1 [Example 16, 2-[[(1R)-1-[2-(3-Cyanophenyl)-6-methyl-4-oxo-chromen-8-yl]ethyl]amino]benzoic acid]",,,,6.00 to 6.30,> 6.30
"Cc1cc([C@@H](C)Nc2ccccc2C(=O)O)c2oc(-c3ccc(C#N)cc3)cc(=O)c2c1 [Example 17, 2-[[(1R)-1-[2-(4-Cyanophenyl)-6-methyl-4-oxo-chromen-8-yl]ethyl]amino]benzoic acid]",,,,> 6.30,> 6.30
"Cc1cc([C@@H](C)Nc2ccccc2C(=O)O)c2oc(-c3cccc(F)c3)cc(=O)c2c1 [Example 18, 2-[[(1R)-1-[2-(3-Fluorophenyl)-6-methyl-4-oxo-chromen-8-yl]ethyl]amino]benzoic acid]",,,,> 6.30,> 6.30
"Cc1cc([C@@H](C)Nc2ccccc2C(=O)O)c2oc(-c3ccc(F)cc3)cc(=O)c2c1 [Example 19, 2-[[(1R)-1-[2-(4-Fluorophenyl)-6-methyl-4-oxo-chromen-8-yl]ethyl]amino]benzoic acid]",,,,5.30 to 6.00,> 6.30
"Cc1cc([C@@H](C)Nc2ccc(F)cc2C(=O)O)c2oc(-c3ccccc3)cc(=O)c2c1 [Example 20, 5-Fluoro-2-[[(1R)-1-(6-methyl-4-oxo-2-plienyl-chromen-8-yl)ethyl]amino]benzoic acid]",,,,> 6.30,> 6.30
"Cc1cc([C@@H](C)Nc2ccccc2C(=O)O)c2oc(-c3ccccc3)cc(=O)c2c1 [Example 22, 2-[[(1R)-1-(6-Methyl-4-oxo-2-phenyl-chromen-8-yl)ethyl]amino]benzoic acid]",,,,> 6.30,> 6.30
"Cc1cc(C(C)Nc2sc(C)nc2C(=O)O)c2oc(-c3ccccc3)cc(=O)c2c1 (stereo not drawn) [Example 23, 2-Methyl-5-[1-(6-methyl-4-oxo-2-phenyl-chromen-8-yl)ethylamino]-thiazole-4-carboxylic acid 2,2,2-trifluoroacetic acid]",5.00 to 5.30,> 6.30,,,
"C[C@@H](Nc1ccccc1C(=O)O)c1cc(F)cc2c(=O)cc(-c3ccccc3)oc12 [Example 24, 2-[[(1R)-1-(6-Fluoro-4-oxo-2-phenyl-chromen-8-yl)ethyl]amino]benzoic acid]",5.30 to 6.00,> 6.30,,,
"Cc1cc([C@@H](C)Nc2ccc(C(F)(F)F)nc2C(=O)O)c2oc(-c3ccccc3)cc(=O)c2c1 [Example 27, 3-[[(1R)-1-(6-Methyl-4-oxo-2-phenyl-chromen-8-yl)ethyl]amino]-6-(trifluoromethyl)-pyridine-2-carboxylic acid]",5.30 to 6.00,> 6.30,,,
"Cc1cc([C@@H](C)Nc2ccccc2C(=O)O)c2oc(-c3ccccc3C#N)c(C)c(=O)c2c1 [Example 34, 2-[[(1R)-1-[2-(2-Cyanophenyl)-3,6-dimethyl-4-oxo-chromen-8-yl]ethyl]amino]benzoic acid]",< 5.00,> 6.30,,,
"Cc1cc(C(C)Nc2ccccc2C(=O)O)c2oc(-c3ccc(N4CCCC4)cc3)cc(=O)c2c1 (stereo not drawn) [Example 45, 2-[1-[6-Methyl-4-oxo-2-(4-pyrrolidin-1-ylphenyl)chromen-8-yl]ethylamino]benzoic acid 2,2,2-trifluoroacetic acid]",< 5.00,> 6.30,,,
"Cc1cc([C@@H](C)Nc2ccc(C)nc2C(=O)O)c2oc(-c3ccccc3)cc(=O)c2c1 [Example 46, 6-Methyl-3-[[(1R)-1-(6-methyl-4-oxo-2-phenyl-chromen-8-yl)ethyl]amino]-pyridine-2-carboxylic acid]",5.00 to 5.30,> 6.30,,,
"Cc1cc([C@@H](C)Nc2ccccc2C(=O)O)c2oc(-c3ccc(C#N)cc3F)cc(=O)c2c1 [Example 51, 2-[[(1R)-1-[2-(4-Cyano-2-fluoro-phenyl)-6-methyl-4-oxo-chromen-8-yl]ethyl]amino]benzoic acid 2,2,2-trifluoroacetic acid]",5.30 to 6.00,> 6.30,,,
"Cc1cc([C@@H](C)Nc2ccccc2C(=O)O)c2oc(-c3ccc(C#N)c(F)c3)cc(=O)c2c1 [Example 56, 2-[[(1R)-1-[2-(4-Cyano-3-fluoro-phenyl)-6-methyl-4-oxo-chromen-8-yl]ethyl]amino]benzoic acid 2,2,2-trifluoroacetic acid]",5.30 to 6.00,> 6.30,,,
"Cc1cc([C@@H](C)Nc2ccccc2C(=O)O)c2oc(-c3ccc(F)cc3F)cc(=O)c2c1 [Example 57, 2-[[(1R)-1-[2-(2,4-Difluorophenyl)-6-methyl-4-oxo-chromen-8-yl]ethyl]amino]benzoic acid 2,2,2-trifluoroacetic acid]",5.30 to 6.00,> 6.30,,,
"CC(Nc1ccccc1C(=O)O)c1cc(F)c(F)c2c(=O)cc(-c3ccccc3)oc12 (stereo not drawn) [Example 64, 2-[1-(5,6-Difluoro-4-oxo-2-phenyl-chromen-8-yl)ethylamino]benzoic acid 2,2,2-trifluoroacetic acid]",< 5.00,> 6.30,,,
"Cc1cc([C@@H](C)Nc2c(Cl)ccc(F)c2C(=O)O)c2oc(-c3ccccc3)c(C)c(=O)c2c1 [Example 65, 3-Chloro-2-[[(1R)-1-(3,6-dimethyl-4-oxo-2-phenyl-chromen-8-yl)ethyl]amino]-6-fluoro-benzoic acid]",< 5.00,< 5.00,,,
"Cc1cc([C@@H](C)Nc2ccccc2C(=O)O)c2oc(-c3cccc(C(F)F)c3)cc(=O)c2c1 [Example 71, 2-[[(1R)-1-[2-[3-(Difluoromethyl)phenyl]-6-methyl-4-oxo-chromen-8-yl]ethyl]amino]benzoic acid]",5.30 to 6.00,> 6.30,,,
"Cc1c(-c2ccccc2)oc2c([C@@H](C)Nc3ccccc3C(=O)O)cc(F)cc2c1=O [Example 72, 2-[[(1R)-1-(6-Fluoro-3-methyl-4-oxo-2-phenyl-chromen-8-yl)ethyl]amino]benzoic acid 2,2,2-trifluoroacetic acid]",5.30 to 6.00,5.30 to 6.00,,,
